Measured values taken from patent US20130273557A1 (priority 2010, published 2013).

Assays:
[1] = test system: models of cell death and NDDs; conditions: non-dopaminergic mechanism; cited from earlier work
[2] = test system: calcium (Ca2+)-induced membrane currents in rat liver mitoplasts; conditions: cited from earlier work
[3] = test system: leak conductance of urea-treated SMVs; test: Patch clamp recordings of urea-treated SMVs (F1 removed); type: biochemical, rat
Description: F1 subunits were removed from SMVs by adapting previously-established methods. 60 mg SMV's/1 mL IB was treated with 1 mL of […] for 5 min. on ice, then centrifuged at 21000×g for 10 min. The pellet was washed 3× in IB (centrifugation at 21000×g for 10 min) and stored in IB.
Giga-ohm seals were formed on SMVs using pipettes and solutions as above. Peak membrane conductance was measured as described above.

[4] = test system: digitonin-treated cortical neurons; test: ATP production following ADP pulse in digitonin-treated cortical neurons; type: cell-based, rat; conditions: dexpramipexole 30 μM
[5] = molecular target: T1, intermediate- and large-conductance channel activity of PSI-mitochondria (Rattus norvegicus, UniProt P19511+Q06647); test: Patch clamp recording of brain-derived PSI-mitochondria; type: biochemical; conditions: subcortex mitochondria vs control animals
T1 sequence (P19511 43-256): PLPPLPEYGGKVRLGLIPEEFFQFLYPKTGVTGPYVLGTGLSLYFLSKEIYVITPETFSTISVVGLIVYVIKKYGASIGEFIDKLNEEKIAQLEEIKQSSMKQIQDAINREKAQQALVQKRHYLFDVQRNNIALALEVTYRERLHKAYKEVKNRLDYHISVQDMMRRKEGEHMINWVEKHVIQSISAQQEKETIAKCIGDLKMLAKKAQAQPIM
T1 sequence (Q06647 24-213): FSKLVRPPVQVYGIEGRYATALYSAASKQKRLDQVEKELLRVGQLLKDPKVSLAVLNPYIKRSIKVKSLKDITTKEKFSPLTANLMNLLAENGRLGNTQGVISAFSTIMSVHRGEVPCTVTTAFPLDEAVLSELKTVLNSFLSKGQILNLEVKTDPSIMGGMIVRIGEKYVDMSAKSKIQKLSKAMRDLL
Description: Isolation of Brain-derived Mitochondria. Standard techniques were adapted for isolating brain-derived mitochondria. Mitochondria were stored in isolation buffer (IB) at −80° C. For PSI-mitochondria, male Sprague-Dawley rats (6 wo, ˜200 gm, 3-6 rats/group/condition, at least 2 different preparations/experimental paradigm) were injected with the ubiquitin proteasome inhibitor Z-Ile-Glu(OtBu)-Ala-Leu-al (PSI; Peptides International Inc, Kentucky, USA; s.c. every other day for 1 or 2 weeks; 6.0 mg/kg PSI in DMSO, or with DMSO, 200 μL/rat), and mitochondria isolated and stored as above.
Reagents were rapidly perfused into the recording chamber.

C2C12 myoblasts = test: OCR and ECAR in C2C12 myoblasts (Seahorse); type: cell-based, mouse; conditions: dexpramipexole 30 μM or PSI 30 nM alone, 18 hr
Description: (§1) The C2C12 mouse myoblast cell line (ATCC, Manasses, Va.) was cultured in Dulbecco's Modified Eagle Medium (DMEM; Gibco®; Carlsbad, Calif.) supplemented with 10% fetal bovine serum (FBS), 2 mM GlutaMax® and penicillin/streptomycin. Cells were maintained in 10% CO2 humidified at 37° C.
OCR and ECAR were measured with a Seahorse® XF24 Flux Analyzer (Seahorse Bioscience, Billerica, Mass.). For PSI experiments on C2C12 cells, basal values were assessed in non-buffered DMEM Assay Medium without glucose, glutamine or pyruvate, and supplemented with 25 mM glucose, 6 mM Glutamax®, and 1 mM sodium pyruvate. […] Succinate and ADP stocks were diluted to 10× concentrations in pre-warmed XF MAS buffer, pH 7.2. Using a Plate Prep Station (Seahorse Bioscience, Billerica, Mass.), cells were washed with 1 mL buffer and were brought to 607 μL with buffer. […] Raw basal OCR and ECAR values were normalized as a percent of the mean control value for each individual experiment. Normalized data from experiments were expressed as mean±SEM.

C2C12 cells [6] = type: cell-based, mouse
Description: (§2) Data are presented as a percentage of the vehicle-treated control ±SEM (n=10 wells at each concentration). […] Experiments commenced 18 hr. after addition of drug. […] Data are presented as a percentage of the vehicle-treated control±SEM (n=14-17 wells for each group).
as §1
(§3) Cellular viability was measured using CellTiter-Blue® (Promega Corp., Madison, Wis.) in black-walled optical imaging multiwell plates, and cellular ATP was measured using the CellTiter-Glo® (Promega Corp., Madison, Wis.) luminescence assay in opaque-walled multiwell plates according to the manufacturer's protocol.

C2C12 cells [7] = test system: C2C12 cells
Description: as §2, §1, §3

[8] = test system: SH-SY5Y neuroblastoma cells; test: PSI-induced cell death in SH-SY5Y cells (CellTiter-Blue); conditions: 24 hr exposure to PSI at 150 or 650 nM
Description: Data shown represent mean±SEM. […] Bar graphs represent normalized mean±SEM. Cell viability was measured by CellTiter-Blue®; n=41-98 wells/condition.
Undifferentiated SH-SY5Y human neuroblastoma cells (ATCC, Manasses, Va.) were maintained in humidified 5% CO2 in 1:1 Ham's F12 nutrient mixture with Glutamax® and Minimal Essential Medium with L-glutamine (MEM-Alpha), 10% FBS, and 1% penicillin/streptomycin (Gibco® Invitrogen Corp., Carlsbad, Calif.).
as §3

complex V (F1FO ATPase) = complex V (F1FO ATPase) (Rattus norvegicus, UniProt P19511+Q06647); test: ATP hydrolysis in SMVs, luciferin-luciferase assay; type: biochemical; set-up: from tissue; host or cells: rat brain mitochondria, lubrol-insoluble submitochondrial vesicles (SMVs); conditions: in these assays (NADH and luciferase)
Excerpt: 3 wells were used for each condition, repeated at least 3× on different SMV isolations.

For `CCCN[C@H]1CCc2nc(N)sc2C1` [pramipexole, (6S)-4,5,6,7-tetrahydro-N6-propyl-2,6-benzothiazole-diamine, reference compound], the protective concentrations [1] is listed as ≥ 10 µM and the “Ca2+-induced membrane currents” value [2] is listed as “inhibit”.

In the case of `Nc1ncnc2c1ncn2[C@@H]1O[C@H](COP(=O)(O)OP(=O)(O)OP(=O)(O)O)[C@@H](O)[C@H]1O` [ATP, adenosine triphosphate, reference compound], the “leak conductance after removal of F1” value [3] is reported as “still very effectively decreased the leak conductance”.

In the case of antimycin A [reference compound], the “initial slope of ATP synthesis following an ADP pulse” value [4] is reported as “significantly reduced” and the “maximal ATP levels” value [4] is reported as “significantly reduced”.

In the case of “Z-Ile-Glu(OtBu)-Ala-Leu-H [PSI, reference compound]”, the “intermediate- and large-conductance mitochondrial ion channel activity after repeated pre-treatment of rats” value [5] is reported as “significant increase”, the ECAR (C2C12 myoblasts) is reported as “very significant increase in ECAR” and the OCR (C2C12 myoblasts) is reported as “did not display a significant change in OCR”. The ATP levels (C2C12 cells [6]) was “neither ATP levels nor cell viability (FIG. 5b) were significantly affected”, the “concentrations reducing cellular viability” value (C2C12 cells [7]; 18 hr exposure) was > 60 nM and the cell viability (C2C12 cells [7]; dexpramipexole 30 μM or PSI 30 nM, 18 hr, relative to control) was “neither ATP levels nor cell viability (FIG. 5b) were significantly affected”. For the same compound, the cell viability [8] was “significant decreases in cell viability”.

For `CC[C@H]1/C=C/C=C/C[C@@H](C)[C@H](O)[C@@](C)(O)C(=O)[C@@H](C)[C@H](O)[C@@H](C)C(=O)[C@@H](C)[C@H](O)[C@@H](C)/C=C/C(=O)O[C@@H]2[C@H](C)[C@H](CC1)O[C@]1(CC[C@H](C)[C@H](C[C@@H](C)O)O1)[C@H]2C` [oligomycin, reference compound], the ATP hydrolysis (complex V (F1FO ATPase)) was “effectively inhibited ATP hydrolysis”.
